Patent publication US7812178B2, “Isoquinoline compound and pharmaceutical use thereof” (Mitsubishi Tanabe Pharma Corporation, priority 2002, dated 2010)

What was measured:
recombinant human PARP = molecular target: T1, recombinant human PARP (Homo sapiens, UniProt P09874); experiment: PARP enzyme activity inhibitory action (3H-NAD poly ADP-ribosylation, filter assay); assay type: biochemical; conditions: 25° C., 15 min
T1 construct: purchased Trevigen 4667-02X
Experimental: After incubation at 25° C. for 15 min., the reaction was stopped with 20% trichloroacetic acid, and the resulting acid insoluble fraction was adsorbed to a GF/B filter. The filter was washed several times with 5% trichloroacetic acid, and the radiation dose on the filter was measured with a liquid scintillation counter.

[1] = Determination of stability in physiological saline at room temperature (residual ratio by HPLC); assay type: physicochemical; conditions: for Residual rate (%) under non-shielding 7 days later / Residual rate (%) under shielding 7 days later: day 7; for Residual rate (%) under non-shielding 11 days later / Residual rate (%) under shielding 11 days later: day 11
Experimental: Each compound was dissolved in physiological saline to give solutions having a concentration of 1.0 mg/mL or 10 mg/mL. They were preserved at room temperature, under shielding or non-shielding and the residual ratio at day 7 and day 11 was measured by HPLC. […]
column: Inertsil ODS3V (GL Science Inc.)
Mobile phase: methanol: 0.01 mol/L aqueous ammonium acetate solution detection wavelength: 254 nm

[2] = 1.0 mg/mL in physiological saline
[3] = 10 mg/mL in physiological saline

T1 sequence (P09874 whole entry): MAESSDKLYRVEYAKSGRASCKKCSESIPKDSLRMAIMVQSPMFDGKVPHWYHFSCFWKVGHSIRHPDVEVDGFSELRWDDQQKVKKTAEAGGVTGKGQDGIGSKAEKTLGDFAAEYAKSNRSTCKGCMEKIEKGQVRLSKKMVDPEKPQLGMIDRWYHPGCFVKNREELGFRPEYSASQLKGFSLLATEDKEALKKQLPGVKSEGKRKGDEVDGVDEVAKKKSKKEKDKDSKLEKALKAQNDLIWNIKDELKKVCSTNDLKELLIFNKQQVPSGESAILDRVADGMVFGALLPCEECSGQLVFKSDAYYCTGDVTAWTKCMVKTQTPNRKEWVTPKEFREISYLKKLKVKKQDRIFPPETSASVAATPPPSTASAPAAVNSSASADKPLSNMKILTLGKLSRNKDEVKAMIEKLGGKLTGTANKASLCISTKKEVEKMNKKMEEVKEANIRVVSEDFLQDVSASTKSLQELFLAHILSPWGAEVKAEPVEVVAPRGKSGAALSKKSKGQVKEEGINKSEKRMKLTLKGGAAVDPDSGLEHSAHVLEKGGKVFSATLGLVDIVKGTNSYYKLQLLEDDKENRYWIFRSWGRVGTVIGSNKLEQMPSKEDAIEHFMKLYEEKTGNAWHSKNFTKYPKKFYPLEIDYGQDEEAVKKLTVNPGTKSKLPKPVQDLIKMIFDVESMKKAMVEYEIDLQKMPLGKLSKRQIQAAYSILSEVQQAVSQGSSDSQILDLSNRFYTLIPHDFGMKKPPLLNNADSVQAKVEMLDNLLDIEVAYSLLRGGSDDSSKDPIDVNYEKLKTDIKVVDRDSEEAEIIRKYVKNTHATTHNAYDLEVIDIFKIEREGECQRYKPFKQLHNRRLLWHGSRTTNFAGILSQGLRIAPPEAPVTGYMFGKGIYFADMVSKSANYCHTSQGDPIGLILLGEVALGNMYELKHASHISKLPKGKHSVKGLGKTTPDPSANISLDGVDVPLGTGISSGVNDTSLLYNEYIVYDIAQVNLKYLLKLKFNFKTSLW

Cc1cccc2c(=O)[nH]c(C3CCN(CCO)C3)cc12 (single isomer, unassigned; (+)) [Ex. 38a, (+)-3-[1-(2-hydroxylethyl)pyrrolidin-3-yl]-5-methyl-2H-isoquinolin-1-one]
melting point: 137 to 138.6 °C | IC50 (recombinant human PARP): 0.029 µM

Cc1cccc2c(=O)[nH]c(C3CCN(CCO)C3)cc12 (single isomer, unassigned; (-)) [Ex. 37a, (−)-3-[1-(2-hydroxylethyl)pyrrolidin-3-yl]-5-methyl-2H-isoquinolin-1-one]
melting point: 137.3 to 138.6 °C | IC50 (recombinant human PARP): 0.02 µM

Cc1cccc2c(=O)[nH]c(CCN3CC[C@@H](O)C3)cc12 [Ex. 1a, (R)-3-[2-(3-hydroxypyrrolidin-1-yl)ethyl]-5-methyl-2H-isoquinolin-1-one]
Residual rate (%) under non-shielding 7 days later [1, 2]: ≈100% | Residual rate (%) under non-shielding 11 days later [1, 2]: ≈100% | Residual rate (%) under shielding 7 days later [1, 2]: ≈100% | Residual rate (%) under shielding 11 days later [1, 2]: ≈100% | Residual rate (%) under non-shielding 7 days later [1, 3]: ≈100% | Residual rate (%) under non-shielding 11 days later [1, 3]: ≈100% | Residual rate (%) under shielding 7 days later [1, 3]: ≈100% | Residual rate (%) under shielding 11 days later [1, 3]: ≈100% | IC50 (recombinant human PARP): 0.039 µM

Cc1cccc2c(=O)[nH]c(C3CCN(CCO)CC3)cc12 [Ex. 2a, 3-[1-(2-hydroxyethyl)piperidin-4-yl]-5-methyl-2H-isoquinolin-1-one]
Residual rate (%) under non-shielding 7 days later [1, 2]: ≈100% | Residual rate (%) under non-shielding 11 days later [1, 2]: ≈100% | Residual rate (%) under shielding 7 days later [1, 2]: ≈100% | Residual rate (%) under shielding 11 days later [1, 2]: ≈100% | Residual rate (%) under non-shielding 7 days later [1, 3]: ≈100% | Residual rate (%) under non-shielding 11 days later [1, 3]: ≈100% | Residual rate (%) under shielding 7 days later [1, 3]: ≈100% | Residual rate (%) under shielding 11 days later [1, 3]: ≈100% | IC50 (recombinant human PARP): 0.017 µM

Cc1cccc2c(=O)[nH]c(CCCN3CCC(O)C3)cc12 (stereo not shown) [Ex. 4a, 3-[3-(3-hydroxypyrrolidin-1-yl)propyl]-5-methyl-2H-isoquinolin-1-one]
IC50 (recombinant human PARP): 0.046 µM

Cc1cccc2c(=O)[nH]c(CCN3CCC(O)C3)cc12 (stereo not shown) [Ex. 5a, 3-[2-(3-hydroxypyrrolidin-1-yl)ethyl]-5-methyl-2H-isoquinolin-1-one]
IC50 (recombinant human PARP): 0.05 µM

O=c1[nH]c(C2CCN(CCO)CC2)cc2ccccc12 [Ex. 9a, 3-[1-(2-hydroxyethyl)piperidin-4-yl]-2H-isoquinolin-1-one]
IC50 (recombinant human PARP): 0.044 µM

Cc1cccc2c(=O)[nH]c(C3CCN(CCO)C3)cc12 (stereo not shown) [Ex. 28a, 3-[1-(2-hydroxyethyl)pyrrolidin-3-yl]-5-methyl-2H-isoquinolin-1-one]
IC50 (recombinant human PARP): 0.035 µM

Cc1cccc2c(=O)[nH]c(CCN3CC[C@H](O)C3)cc12 [Ex. 34a, (S)-3-[2-(3-hydroxypyrrolidin-1-yl)ethyl]-5-methyl-2H-isoquinolin-1-one]
melting point: 176 to 178 °C | IC50 (recombinant human PARP): 0.034 µM

Cc1cccc2c(=O)[nH]c(CCN3CCC[C@@H]3CO)cc12 [Ex. 36a, (R)-3-[2-(2-hydroxymethylpyrrolidin-1-yl)ethyl]-5-methyl-2H-isoquinolin-1-one]
Residual rate (%) under non-shielding 7 days later [1, 2]: ≈100% | Residual rate (%) under non-shielding 11 days later [1, 2]: ≈100% | Residual rate (%) under shielding 7 days later [1, 2]: ≈100% | Residual rate (%) under shielding 11 days later [1, 2]: ≈100% | Residual rate (%) under non-shielding 7 days later [1, 3]: ≈100% | Residual rate (%) under non-shielding 11 days later [1, 3]: ≈100% | Residual rate (%) under shielding 7 days later [1, 3]: ≈100% | Residual rate (%) under shielding 11 days later [1, 3]: ≈100% | IC50 (recombinant human PARP): 0.029 µM

Cc1cccc2c(=O)[nH]c(C3CCN(CCCO)CC3)cc12 [Example 23a, 5-methyl-3-[1-(3-hydroxypropyl)piperidin-4-yl]-2H-isoquinolin-1-one]
melting point: 197 to 199 °C

Cc1cccc2c(=O)[nH]c(CCN3CCCC(O)C3)cc12 (stereo not shown) [Example 32a, 3-[2-(3-hydroxypiperidin-1-yl)ethyl]-5-methyl-2H-isoquinolin-1-one]
melting point: 184 to 185 °C

Cc1cccc2c(=O)[nH]c(CCN3CCC[C@@H](O)C3)cc12 [Example 35a, (R)-3-[2-(3-hydroxypiperidin-1-yl)ethyl]-5-methyl-2H-isoquinolin-1-one]
melting point: 180 to 181 °C
